Reference: patent US20240279221A1, “HETEROCYCLIC COMPOUNDS AND METHODS OF USE” (Schrödinger, Inc., priority 2021, published 2024)

What follows are compounds tested against SOS1:KRAS (G12C) interaction (Homo sapiens (Human), UniProt Q07889) (assay: SOS1-KRas(G12C) FRET Assay). Conditions: 0.5 nM His10-SOS1 (res. 564-1049), 2.5 nM GST-KRAS (res. 1-169, G12C); read-out: SOS-KRas(G12C) FRET IC50.
Format: binding
Experimental: Inhibition of the SOS1:KRAS interaction was measured using purified GST-tagged KRAS (res. 1-169, G12C, purified based on Hillig, et al., Proc Natl Acad Sci USA (2019); 116(7):2551-2560) and recombinant His10-SOS1 (res. 564-1049; purified based on Hillig, et al.). The final assay was performed at 20 uL with 0.5 nM SOS1 protein and 2.5 nM KRAS protein in a buffer of PBS, 0.1% BSA, 5 mM MgCl2, 0.0025% Igepal, 100 mM KF, 5 mM DTT in a white 384 square well OptiPlate (PerkinElmer, Cat. 6007290). A 2× KRAS working solution was prepared in an assay buffer containing 5 nM GST-KRAS G12C and 2 nM anti-GST-Eu(K) (Cisbio, Cat. 61GSTKLA) and pre-incubated for 15 minutes at 25° C. Compounds were serially diluted in 100% DMSO from 2 mM (positive control, compound I-13, PCT Publ. No. WO2018/115380) or 20 mM and then diluted 1:20 in assay buffer before incubation with a solution of SOS1 protein mixed 1:5 with anti-6His-XL665 FRET donor (Cisbio, Cat. 61HISXL) for 15 minutes at 25° C. before addition of 2× KRAS working solution. The final DMSO concentration is 0.5%. Plates were incubated at RT for 2 hrs before the FRET signal was measured using Envision at emission 665 nm and 615 nm. FRET signal was converted to percentage of protein-protein interaction using the following equation:
[formula] • C: signal with compound treatment • P: signal for positive control (DMSO) • N: signal for negative control (no SOS1 added) • IC50 and Hill coefficients were obtained using Graph Pad Prism (Graph Pad software, Inc, USA) with non-linear regression analysis.

SOS1:KRAS (G12C) interaction, sequence (Q07889 564-1049, stated change not applied): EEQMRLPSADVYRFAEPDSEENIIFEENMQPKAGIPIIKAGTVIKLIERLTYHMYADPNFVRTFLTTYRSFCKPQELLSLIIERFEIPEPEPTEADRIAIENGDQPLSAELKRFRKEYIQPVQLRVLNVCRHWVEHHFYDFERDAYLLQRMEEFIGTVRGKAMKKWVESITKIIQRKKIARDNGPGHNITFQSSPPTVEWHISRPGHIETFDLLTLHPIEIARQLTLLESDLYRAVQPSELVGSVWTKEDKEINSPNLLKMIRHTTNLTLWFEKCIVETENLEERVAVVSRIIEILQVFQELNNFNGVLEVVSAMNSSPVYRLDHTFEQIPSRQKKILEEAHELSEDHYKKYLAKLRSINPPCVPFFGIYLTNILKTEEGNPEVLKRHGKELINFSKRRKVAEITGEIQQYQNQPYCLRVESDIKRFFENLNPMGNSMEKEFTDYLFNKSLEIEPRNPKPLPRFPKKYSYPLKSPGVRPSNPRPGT

Row | Compound | IC50 [µM]
1 | C[C@@H](Nc1nn(C)c(=O)c2cc(=O)n([C@@H]3CC34CC4)cc12)c1cccc(C(F)F)c1F (single isomer, unassigned) [Example 128] | 0.287
2 | C[C@@H](Nc1nn(C)c(=O)c2cc(=O)n([C@]3(C(F)F)CCOC3)cc12)c1cccc(C(F)F)c1F (single isomer, unassigned) [Example 120] | 0.0199
3 | C[C@@H](Nc1nn(C)c(=O)c2cc(=O)n(C3(C(C)(F)F)CC3)cc12)c1cccc(C(F)F)c1F [Example 126, (R)-6-(1-(1,1-difluoroethyl)cyclopropyl)-4-((1-(3-(difluoromethyl)-2-fluorophenyl)ethyl)amino)-2-methyl-2,6-dihydropyrido[3,4-d]pyridazine-1,7-dione] | 0.0678
4 | CC(=O)N1CC[C@@](n2cc3c(N[C@H](C)c4cccc5c4OCC5(F)F)nn(C)c(=O)c3cc2=O)(C(F)(F)F)C1 (single isomer, unassigned) [Example 170] | 0.0065
5 | C[C@@H](Nc1nn(C)c(=O)c2cc(=O)n(C3(C)CNC3)cc12)c1cccc(C(F)F)c1F [Example 152, (R)-4-((1-(3-(difluoromethyl)-2-fluorophenyl)ethyl)amino)-2-methyl-6-(3-methylazetidin-3-yl)pyrido[3,4-d]pyridazine-1,7(2H,6H)-dione] | 0.248
6 | C[C@@H](Nc1nn(C)c(=O)c2c(OCCN(C)C)c(=O)n(C3(C(F)F)CC3)cc12)c1cccc(C(F)F)c1F [Example 86, (R)-4-((1-(3-(difluoromethyl)-2-fluorophenyl)ethyl)amino)-6-(1-(difluoromethyl)cyclopropyl)-8-(2-(dimethylamino)ethoxy)-2-methyl-2,6-dihydropyrido[3,4-d]pyridazine-1,7-dione] | 0.0353
7 | CC(=O)N1CC[C@](n2cc3c(N[C@H](C)c4cccc5c(F)coc45)nn(C)c(=O)c3cc2=O)(C(F)(F)F)C1 (single isomer, unassigned) [Example 173] | 2.79
8 | C[C@@H](Nc1nn(C)c(=O)c2cc(=O)n([C@]3(C(F)(F)F)CCOC3)cc12)c1cccc(C(F)F)c1F (single isomer, unassigned) [Example 165] | 0.424
9 | C[C@H](Nc1nn(C)c(=O)c2cc(=O)n(C3(C(F)F)CC3)cc12)c1cccc2c1OCCC2(F)F [Example 181, (S)-4-((1-(4,4-difluorochroman-8-yl)ethyl)amino)-6-(1-(difluoromethyl)cyclopropyl)-2-methyl-2,6-dihydropyrido[3,4-d]pyridazine-1,7-dione] | > 10
10 | C[C@@H](Nc1nn(C)c(=O)c2cc(=O)n(C34CC(C(F)(F)F)(C3)C4)cc12)c1cccc(C(F)F)c1F [Example 155, (R)-4-((1-(3-(difluoromethyl)-2-fluorophenyl)ethyl)amino)-2-methyl-6-(3-(trifluoromethyl)bicyclo[1.1.1]pentan-1-yl)pyrido[3,4-d]pyridazine-1,7(2H,6H)-dione] | 0.159
11 | C[C@@H](Nc1nn(C)c(=O)c2cc(=O)n(C3(C(F)(F)F)COC3)cc12)c1cccc(C(F)F)c1F [Example 156, (R)-4-((1-(3-(difluoromethyl)-2-fluorophenyl)ethyl)amino)-2-methyl-6-(3-(trifluoromethyl)oxetan-3-yl)-2,6-dihydropyrido[3,4-d]pyridazine-1,7-dione] | 0.0666
12 | CC(=O)N1CC[C@](n2cc3c(N[C@H](C)c4cccc(C(F)F)c4F)nn(C)c(=O)c3cc2=O)(C(F)(F)F)C1 (single isomer, unassigned) [Example 100] | 1.92
13 | C[C@@H](Nc1nn(C)c(=O)c2cc(=O)n(C3(CO)CC3)cc12)c1cccc(C(F)F)c1F [Example 123, (R)-4-((1-(3-(difluoromethyl)-2-fluorophenyl)ethyl)amino)-6-(1-(hydroxymethyl)cyclopropyl)-2-methylpyrido[3,4-d]pyridazine-1,7(2H,6H)-dione] | 0.366
14 | C[C@H](Nc1nn(C)c(=O)c2cc(=O)n(C3(C(F)F)CC3)cc12)c1cccc2cccn12 [Example 113, (S)-6-(1-(difluoromethyl)cyclopropyl)-4-((1-(indolizin-5-yl)ethyl)amino)-2-methyl-2,6-dihydropyrido[3,4-d]pyridazine-1,7-dione] | > 10
15 | CC(=O)N1C[C@@H]2C[C@]2(n2cc3c(N[C@H](C)c4cccc(C(F)F)c4F)nn(C)c(=O)c3cc2=O)C1 (single isomer, unassigned) [Example 140] | 0.0313
16 | C[C@@H](Nc1nn(C)c(=O)c2cc(=O)n(C3(C)CN(C(=O)C4(F)CC4)C3)cc12)c1cccc(C(F)F)c1F [Example 153, (R)-4-((1-(3-(difluoromethyl)-2-fluorophenyl)ethyl)amino)-6-(1-(1-fluorocyclopropane-1-carbonyl)-3-methylazetidin-3-yl)-2-methyl-2,6-dihydropyrido[3,4-d]pyridazine-1,7-dione] | 0.0869
17 | C[C@@H](Nc1nn(C)c(=O)c2cc(=O)n(C3(C(F)F)CC3)cc12)c1cccc2c1OCC2(F)F [Example 160, (R)-4-((1-(3,3-difluoro-2,3-dihydrobenzofuran-7-yl)ethyl)amino)-6-(1-(difluoromethyl)cyclopropyl)-2-methyl-2,6-dihydropyrido[3,4-d]pyridazine-1,7-dione] | 0.0367
18 | C[C@@H](Nc1nn(C)c(=O)c2cc(=O)n(C34CNC(C3)C4)cc12)c1cccc(C(F)F)c1F [Example 145, (R)-6-(2-azabicyclo[2.1.1]hexan-4-yl)-4-((1-(3-(difluoromethyl)-2-fluorophenyl)ethyl)amino)-2-methyl-2,6-dihydropyrido[3,4-d]pyridazine-1,7-dione] | 0.083

Further lines, results first:

Row | IC50 [µM] | Compound
19 | 1.03 | C[C@@H](Nc1nn(C)c(=O)c2cc(=O)n(C3CC3)cc12)c1cccc2ccccc12 [Example 1, (R)-6-cyclopropyl-2-methyl-4-((1-(naphthalen-1-yl)ethyl)amino)-2,6-dihydropyrido[3,4-d]pyridazine-1,7-dione]
20 | 0.315 | C[C@@H](Nc1nn(C)c(=O)c2cc(=O)n([C@@H]3CCC(F)(F)C3)cc12)c1cccc(C(F)F)c1F (single isomer, unassigned) [Example 122]
21 | 0.366 | C[C@@H](Nc1nn(C)c(=O)c2cc(=O)n(C3CC3)cc12)c1cccc(C(F)(F)C(=O)N(C)C)c1F [Example 106, (R)-2-(3-(1-((6-cyclopropyl-2-methyl-1,7-dioxo-1,2,6,7-tetrahydropyrido[3,4-d]pyridazin-4-yl)amino)ethyl)-2-fluorophenyl)-2,2-difluoro-N,N-dimethylacetamide]
22 | > 10 | CNC(=O)C(F)(F)c1cccc([C@H](C)Nc2nn(C)c(=O)c3cc(=O)n(C4CC4)cc23)c1F [Example 108, (S)-2-(3-(1-((6-cyclopropyl-2-methyl-1,7-dioxo-1,2,6,7-tetrahydropyrido[3,4-d]pyridazin-4-yl)amino)ethyl)-2-fluorophenyl)-2,2-difluoro-N-methylacetamide]
23 | 0.0656 | C[C@@H](Nc1nn(C)c(=O)c2cc(=O)n([C@@]3(C(F)(F)F)CCN(C)C3)cc12)c1cccc(C(F)F)c1F (single isomer, unassigned) [Example 97]
24 | 3.48 | CC(Nc1nn(C)c(=O)c2cc(=O)n(C3CC3)cc12)c1cc(F)cc(C(F)(F)F)c1 (centres unmarked) [Example 159, 6-cyclopropyl-4-((1-(3-fluoro-5-(trifluoromethyl)phenyl)ethyl)amino)-2-methylpyrido[3,4-d]pyridazine-1,7(2H,6H)-dione]
25 | > 10 | C[C@H](Nc1nn(C)c(=O)c2cc(=O)n(C3CCOCC3)cc12)c1cccc2sccc12 [Example 63, (S)-4-((1-(benzo[b]thiophen-4-yl)ethyl)amino)-2-methyl-6-(tetrahydro-2H-pyran-4-yl)-2,6-dihydropyrido[3,4-d]pyridazine-1,7-dione]
26 | 1.95 | Cc1c([C@@H](C)Nc2nn(C)c(=O)c3cc(=O)n(C4CCN(C)CC4)cc23)cccc1C(F)(F)F [Example 23, (R)-2-methyl-4-((1-(2-methyl-3-(trifluoromethyl)phenyl)ethyl)amino)-6-(1-methylpiperidin-4-yl)-2,6-dihydropyrido[3,4-d]pyridazine-1,7-dione]
27 | 0.567 | Cc1c([C@@H](C)Nc2nn(C)c(=O)c3cc(=O)n([C@@H]4C[C@H]4c4cncc(F)c4)cc23)cccc1C(F)(F)F (single isomer, unassigned) [Example 92]
28 | 0.0974 | Cc1c([C@@H](C)Nc2nn(C)c(=O)c3cc(=O)n([C@H]4C[C@@H]4c4cncc(F)c4)cc23)cccc1C(F)(F)F (single isomer, unassigned) [Example 91]
29 | 0.271 | CNC(=O)C(F)(F)c1cccc([C@@H](C)Nc2nn(C)c(=O)c3cc(=O)n(C4CC4)cc23)c1F [Example 107, (R)-2-(3-(1-((6-cyclopropyl-2-methyl-1,7-dioxo-1,2,6,7-tetrahydropyrido[3,4-d]pyridazin-4-yl)amino)ethyl)-2-fluorophenyl)-2,2-difluoro-N-methylacetamide]
